According to the supplement of paper PMC10307832:

What was measured:
Test in all cases: relative viability (nuclei count vs DMSO), 5 days (fraction); higher = more cells survive
Everolimus = compound: CO[C@H]1C[C@@H]2CC[C@@H](C)[C@@](O)(O2)C(=O)C(=O)N2CCCC[C@H]2C(=O)O[C@H]([C@H](C)C[C@@H]2CC[C@@H](OCCO)[C@H](OC)C2)CC(=O)[C@H](C)/C=C(\C)[C@@H](O)[C@@H](OC)C(=O)[C@H](C)C[C@H](C)/C=C/C=C/C=C/1C [Everolimus]
How it was run: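 Nuclei counted with MetaXpress define viability as the ratio of treated to vehicle wells, given as a median across plates. The lung cancer cell lines were in 1536-well plates, pinned with five √10-spaced library-drug doses and imaged at 4× after 5 days and Hoechst staining. Plates passed with control CV below 25% and at least one doubling.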

Everolimus + AZD7762 = compound: CO[C@H]1C[C@@H]2CC[C@@H](C)[C@@](O)(O2)C(=O)C(=O)N2CCCC[C@H]2C(=O)O[C@H]([C@H](C)C[C@@H]2CC[C@@H](OCCO)[C@H](OC)C2)CC(=O)[C@H](C)/C=C(\C)[C@@H](O)[C@@H](OC)C(=O)[C@H](C)C[C@H](C)/C=C/C=C/C=C/1C [Everolimus] + NC(=O)Nc1cc(-c2cccc(F)c2)sc1C(=O)N[C@H]1CCCNC1 [AZD7762] (partner 0.2 µM)
How it was run: (§1)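 Lung cancer cell lines in 1536-well plates were dosed by pin tool the day after seeding, either with one drug alone or with a fixed anchor-drug dose plus five library-drug doses (not always all listed) in √10 steps. After 5 days, cells were fixed and their nuclei stained in one step (final 0.05% Triton X-100, 1% formaldehyde, 1 ug/ml Hoechst), then counted on 4× images. Relative viability is the nuclei count in treated wells divided by that in vehicle wells. Values are medians of duplicate plates.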

Everolimus + Trametinib = compound: CO[C@H]1C[C@@H]2CC[C@@H](C)[C@@](O)(O2)C(=O)C(=O)N2CCCC[C@H]2C(=O)O[C@H]([C@H](C)C[C@@H]2CC[C@@H](OCCO)[C@H](OC)C2)CC(=O)[C@H](C)/C=C(\C)[C@@H](O)[C@@H](OC)C(=O)[C@H](C)C[C@H](C)/C=C/C=C/C=C/1C [Everolimus] + CC(=O)Nc1cccc(-n2c(=O)n(C3CC3)c(=O)c3c(Nc4ccc(I)cc4F)n(C)c(=O)c(C)c32)c1 [Trametinib] (partner 0.02 µM)
How it was run: as §1

Everolimus + Tozasertib = compound: CO[C@H]1C[C@@H]2CC[C@@H](C)[C@@](O)(O2)C(=O)C(=O)N2CCCC[C@H]2C(=O)O[C@H]([C@H](C)C[C@@H]2CC[C@@H](OCCO)[C@H](OC)C2)CC(=O)[C@H](C)/C=C(\C)[C@@H](O)[C@@H](OC)C(=O)[C@H](C)C[C@H](C)/C=C/C=C/C=C/1C [Everolimus] + Cc1cc(Nc2cc(N3CCN(C)CC3)nc(Sc3ccc(NC(=O)C4CC4)cc3)n2)n[nH]1 [Tozasertib] (partner 0.1 µM)
How it was run: as §1

Cell Line | relative viability (Everolimus; 0.01 µM) | relative viability (Everolimus; 0.03162 µM) | relative viability (Everolimus; 0.1 µM) | relative viability (Everolimus; 0.3162 µM) | relative viability (Everolimus; 1 µM) | relative viability (Everolimus + AZD7762; first compound 0.01 µM) | relative viability (Everolimus + AZD7762; first compound 0.03162 µM) | relative viability (Everolimus + AZD7762; first compound 0.1 µM) | relative viability (Everolimus + AZD7762; first compound 0.3162 µM) | relative viability (Everolimus + AZD7762; first compound 1 µM) | relative viability (Everolimus + Trametinib; first compound 0.01 µM) | relative viability (Everolimus + Trametinib; first compound 0.03162 µM) | relative viability (Everolimus + Trametinib; first compound 0.1 µM) | relative viability (Everolimus + Trametinib; first compound 0.3162 µM) | relative viability (Everolimus + Trametinib; first compound 1 µM) | relative viability (Everolimus + Tozasertib; first compound 0.01 µM) | relative viability (Everolimus + Tozasertib; first compound 0.03162 µM) | relative viability (Everolimus + Tozasertib; first compound 0.1 µM) | relative viability (Everolimus + Tozasertib; first compound 0.3162 µM) | relative viability (Everolimus + Tozasertib; first compound 1 µM)
NCI-H2405 | 0.791 | 0.774 | 0.731 | 0.767 | 0.74 | 0.655 | 0.652 | 0.657 | 0.637 | 0.662 | 0.419 | 0.362 | 0.385 | 0.426 | 0.431 | 0.832 | 0.729 | 0.717 | 0.762 | 0.657
NCI-H1703 | 0.455 | 0.373 | 0.456 | 0.529 | 0.63 | – | – | – | 0.132 | 0.121 | – | – | – | – | – | – | – | – | – | –
NCI-H1755 | 0.919 | 0.865 | 0.749 | 0.819 | 0.816 | 0.379 | 0.39 | 0.382 | 0.344 | 0.345 | 0.666 | 0.579 | 0.553 | 0.545 | 0.453 | 0.594 | 0.488 | 0.538 | 0.525 | 0.425
NCI-H2228 | 0.706 | 0.593 | 0.51 | 0.533 | 0.582 | – | – | – | – | – | 0.33 | 0.237 | 0.256 | 0.251 | 0.265 | 0.23 | 0.244 | 0.271 | 0.211 | 0.137
NCI-H520 | 0.436 | 0.413 | 0.401 | 0.326 | 0.371 | – | – | – | – | – | 0.292 | 0.286 | 0.245 | 0.249 | 0.256 | 0.271 | 0.28 | 0.264 | 0.222 | 0.239
EBC-1 | 0.415 | 0.385 | 0.41 | 0.416 | 0.408 | – | – | – | – | – | – | – | – | – | – | – | – | – | – | –
NCI-H661 | 0.812 | 0.814 | 0.786 | 0.746 | 0.667 | – | – | – | – | – | 0.407 | 0.376 | 0.343 | 0.409 | 0.318 | 0.363 | 0.368 | 0.391 | 0.359 | 0.376
NCI-H1299 | 0.969 | 0.98 | 1.01 | 0.974 | 1.04 | – | – | – | – | – | – | – | – | – | – | – | – | – | – | –
Calu-6 | 0.956 | 0.922 | 0.892 | 0.88 | 0.988 | – | – | – | – | – | – | – | – | – | – | – | – | – | – | –
A549 | 0.602 | 0.412 | 0.371 | 0.423 | 0.399 | – | – | – | – | – | – | – | – | – | – | – | – | – | – | –
SK-LU-1 | 0.652 | 0.583 | 0.593 | 0.591 | 0.639 | – | – | – | – | – | 0.39 | 0.355 | 0.298 | 0.345 | 0.317 | 0.285 | 0.262 | 0.24 | 0.241 | 0.289
COR-L23 | 0.858 | 0.942 | 0.869 | 0.88 | 0.684 | – | – | – | – | – | 0.37 | 0.337 | 0.316 | 0.375 | 0.294 | 0.334 | 0.324 | 0.288 | 0.255 | 0.233
NCI-H1650 | 0.761 | 0.879 | 0.828 | 0.85 | 0.868 | – | – | – | – | – | 0.48 | 0.489 | 0.437 | 0.481 | 0.58 | 0.46 | 0.424 | 0.416 | 0.445 | 0.482
IA-LM | 0.601 | 0.396 | 0.378 | 0.374 | 0.406 | – | – | – | – | – | – | – | – | – | – | – | – | – | – | –
NCI-H2009 | 0.769 | 0.867 | 0.705 | 0.791 | 0.841 | – | – | – | – | – | 0.132 | 0.121 | 0.14 | 0.138 | 0.158 | 0.576 | 0.65 | 0.545 | 0.612 | 0.491
NCI-H1563 | 0.767 | 0.761 | 0.715 | 0.728 | 0.676 | – | – | – | – | – | – | – | – | – | – | – | – | – | – | –
SK-MES-1 | 0.755 | 0.75 | 0.74 | 0.663 | 0.622 | – | – | – | – | – | 0.38 | 0.412 | 0.372 | 0.397 | 0.277 | 0.791 | 0.807 | 0.794 | 0.779 | 0.662
UMC-11 | 0.376 | 0.415 | 0.374 | 0.44 | 0.468 | – | – | – | – | – | 0.267 | 0.299 | 0.252 | 0.348 | 0.295 | 0.212 | 0.195 | 0.208 | 0.215 | 0.198
ABC-1 | 0.604 | 0.822 | 0.781 | 0.707 | 0.875 | 0.667 | 0.479 | 0.747 | 0.702 | 0.89 | – | – | – | – | – | 0.183 | 0.172 | 0.163 | 0.193 | 0.208
SW 1573 | 0.585 | 0.555 | 0.546 | 0.544 | 0.519 | – | – | – | – | – | 0.3 | 0.311 | 0.291 | 0.303 | 0.281 | 0.16 | 0.172 | 0.13 | 0.157 | 0.132
NCI-H1792 | 0.478 | 0.336 | 0.363 | 0.349 | 0.379 | 0.312 | 0.312 | 0.304 | 0.185 | 0.262 | 0.196 | 0.251 | 0.215 | 0.164 | 0.16 | – | – | – | – | –
NCI-H2023 | 0.545 | 0.501 | 0.458 | 0.457 | 0.378 | – | – | – | – | – | 0.259 | 0.216 | 0.247 | 0.187 | 0.225 | 0.273 | 0.203 | 0.235 | 0.235 | 0.225
COR-L 105 | 0.667 | 0.682 | 0.592 | 0.552 | 0.663 | – | – | – | – | – | 0.424 | 0.389 | 0.378 | 0.455 | 0.424 | 0.312 | 0.305 | 0.332 | 0.346 | 0.292
